Measured values reported in PubChem BioAssay AID328 (DTP/NCI, 2004).
Several values for one entry are separate records, joined by “and”; a condition that tells them apart may be missing. Identical values can stand only once. Inconclusive results and toxic doses are left out. How the source made its calls: active means survival T/C of 150% or more; inactive means T/C below 125% in these data.

Test system: BDF1 mice, P388 leukemia ip, median survival T/C
Experiment: NCI In Vivo Anticancer Drug Screen. Data for tumor model P388 Leukemia (intraperitoneal) in B6D2F1 (BDF1) mice
Conditions: endpoint: median survival time, higher = longer survival
Outline: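 Transplantable tumour in mice; compound vs vehicle dosing; survival scored; ratio of treated to control reported.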

[1] = dose: 100.0 mg/kg/injection, schedule: Q01DX009 (ip), vehicle: saline
[2] = dose: 100.0 mg/kg/injection, schedule: Q04DX003 (ip), vehicle: saline
[3] = dose: 50.0 mg/kg/injection, schedule: Q04DX003 (ip), vehicle: saline with Tween-80
[4] = dose: 100.0 mg/kg/injection, schedule: Q04DX003 (ip), vehicle: saline with Tween-80
[5] = dose: 100.0 mg/kg/injection, schedule: Q01DX009 (ip), vehicle: saline with Tween-80
[6] = dose: 200.0 mg/kg/injection, schedule: Q01DX009 (ip), vehicle: saline with Tween-80
[7] = dose: 200.0 mg/kg/injection, schedule: Q04DX003 (ip), vehicle: saline with Tween-80
[8] = dose: 400.0 mg/kg/injection, schedule: Q04DX003 (ip), vehicle: saline with Tween-80
[9] = dose: 12.5 mg/kg/injection, schedule: Q01DX009 (ip), vehicle: saline with Tween-80
[10] = dose: 25.0 mg/kg/injection, schedule: Q01DX009 (ip), vehicle: saline with Tween-80
[11] = dose: 50.0 mg/kg/injection, schedule: Q01DX009 (ip), vehicle: saline with Tween-80

Measured: T/C

N#CCCNCCC#N
inactive: dose: 50.0 mg/kg/injection, schedule: Q01DX009 (ip), vehicle: saline 91 % of control | [1] 108 % of control | [2] 105 % of control | dose: 200.0 mg/kg/injection, schedule: Q01DX009 (ip), vehicle: saline 104 % of control | dose: 200.0 mg/kg/injection, schedule: Q04DX003 (ip), vehicle: saline 105 % of control

CN1CCN(C2CCCCc3ccccc32)CC1 (stereo not drawn)
inactive: dose: 25.0 mg/kg/injection, schedule: Q04DX003 (ip), vehicle: saline with Tween-80 104 % of control | [3] 113 % of control | [4] 109 % of control

CCCCCCCCSP(=S)(N1CC1)N1CC1
inactive: [5] 90 % of control | [4] 88 % of control | [6] 100 % of control | [7] 94 % of control | dose: 400.0 mg/kg/injection, schedule: Q01DX009 (ip), vehicle: saline with Tween-80 95 % of control | [8] 88 % of control

CN(C)c1ccc(/C=C\c2ccnc3ccccc23)cc1Br
inactive: [9] 107 % of control | [10] 94 % of control | [11] 99 % of control | [5] 89 % of control

O=N[O-].[Co].[N-]=C=S.[NH2-].[NH2-].[NH2-].[NH2-]
inactive: dose: 6.25 mg/kg/injection, schedule: Q01DX009 (ip), vehicle: saline 95 % of control | dose: 12.5 mg/kg/injection, schedule: Q01DX009 (ip), vehicle: saline 93 % of control | dose: 25.0 mg/kg/injection, schedule: Q01DX009 (ip), vehicle: saline 112 % of control | [3] 120 % of control

CC(=O)Nc1ccc(OC(=O)Nc2ccc(C)c(NC(=O)Oc3ccc(NC(C)=O)cc3)c2)cc1
inactive: dose: 50.0 mg/kg/injection, schedule: Q01DX005 (ip), vehicle: saline with Tween-80 96 % of control | dose: 100.0 mg/kg/injection, schedule: Q01DX005 (ip), vehicle: saline with Tween-80 102 % of control | dose: 200.0 mg/kg/injection, schedule: Q01DX005 (ip), vehicle: saline with Tween-80 119 % of control

CC1C=CC(C)C(C(=O)c2ccccc2)C1C(=O)c1ccccc1 (stereo not drawn)
inactive: dose: 100.0 mg/kg/injection, schedule: Q04DX003 (ip), vehicle: Klucel (hydroxypropylcellulose) (HPC) 104 % of control | dose: 200.0 mg/kg/injection, schedule: Q04DX003 (ip), vehicle: Klucel (hydroxypropylcellulose) (HPC) 100 % of control | dose: 400.0 mg/kg/injection, schedule: Q04DX003 (ip), vehicle: Klucel (hydroxypropylcellulose) (HPC) 100 % of control

COc1cccc(CC(=O)NCCc2ccc(OC)c(OC)c2)c1
inactive: [4] 100 % of control | [7] 90 % of control | [8] 100 % of control

N#Cc1c(Nc2cccc(Cl)c2)sc(C(=O)c2cc3cc(Cl)ccc3o2)c1N
inactive: [11] 109 % of control | [5] 100 % of control | [6] 93 % of control

COC(=O)[C@@H](C)[C@@H](O)[C@@H](C)N
inactive: [4] 101 % of control | [7] 99 % of control | [8] 103 % of control

CCCCCCCCCCCC(=O)CCC
inactive: dose: 100.0 mg/kg/injection, schedule: Q04DX003 (ip), vehicle: other 100 % of control | dose: 200.0 mg/kg/injection, schedule: Q04DX003 (ip), vehicle: other 91 % of control and 100 % of control | dose: 400.0 mg/kg/injection, schedule: Q04DX003 (ip), vehicle: other 91 % of control and 100 % of control

Cc1cc(C(=O)NN)nn1CCO
inactive: dose: 87.5 mg/kg/injection, schedule: Q01DX009 (ip), vehicle: saline with Tween-80 89 % of control | dose: 175.0 mg/kg/injection, schedule: Q01DX009 (ip), vehicle: saline with Tween-80 88 % of control | dose: 350.0 mg/kg/injection, schedule: Q01DX009 (ip), vehicle: saline with Tween-80 114 % of control

CN(C)c1ccc([N+](=O)[O-])cn1
inactive: [9] 95 % of control | [10] 102 % of control | [11] 98 % of control | [5] 98 % of control

Cc1ccc(S(=O)(=O)NCN2C(=O)c3ccccc3C2=O)cc1
inactive: dose: 12.5 mg/kg/injection, schedule: Q01DX009 (ip), vehicle: Klucel (hydroxypropylcellulose) (HPC) 100 % of control | dose: 25.0 mg/kg/injection, schedule: Q01DX009 (ip), vehicle: Klucel (hydroxypropylcellulose) (HPC) 100 % of control | [10] 86 % of control | dose: 50.0 mg/kg/injection, schedule: Q01DX009 (ip), vehicle: Klucel (hydroxypropylcellulose) (HPC) 105 % of control | [1] 91 % of control

Clc1ccc(C[P+](c2ccccc2)(c2ccccc2)c2ccccc2)c(Cl)c1
inactive: dose: 1.4 mg/kg/injection, schedule: Q01DX009 (ip), vehicle: saline 120 % of control | dose: 7.5 mg/kg/injection, schedule: Q01DX009 (ip), vehicle: saline 115 % of control

CSC/C(=N\Nc1ccc([N+](=O)[O-])cc1[N+](=O)[O-])c1ccccc1
inactive: dose: 1.56 mg/kg/injection, schedule: Q01DX001 (ip), vehicle: saline with Tween-80 100 % of control | dose: 3.13 mg/kg/injection, schedule: Q01DX001 (ip), vehicle: saline with Tween-80 104 % of control | dose: 6.25 mg/kg/injection, schedule: Q01DX001 (ip), vehicle: saline with Tween-80 114 % of control

II
inactive: dose: 12.0 mg/kg/injection, schedule: Q01DX010 (ip), vehicle: acetone 114 % of control | dose: 25.0 mg/kg/injection, schedule: Q01DX010 (ip), vehicle: acetone 96 % of control | dose: 50.0 mg/kg/injection, schedule: Q01DX010 (ip), vehicle: acetone 110 % of control

NC(N)=N/N=C/C=N/N=C(N)N
inactive: [2] 100 % of control

COc1cc2cc(c1Cl)N(C)C(=O)CC(O)C1(C)OC1C(C)C1CC(O)(NC(=O)O1)C(OC)C=C/C=C(\C)C2 (stereo not drawn)
inactive: dose: 1.8 micrograms/kg/injection, schedule: Q01DX009 (ip), vehicle: saline + alcohol 102 % of control | dose: 3.1 micrograms/kg/injection, schedule: Q01DX009 (ip), vehicle: saline + alcohol 102 % of control and 115 % of control | dose: 6.2 micrograms/kg/injection, schedule: Q01DX009 (ip), vehicle: saline + alcohol 102 % of control and 108 % of control | dose: 12.5 micrograms/kg/injection, schedule: Q01DX009 (ip), vehicle: saline + alcohol 102 % of control and 108 % of control | dose: 25.0 micrograms/kg/injection, schedule: Q01DX009 (ip), vehicle: saline + alcohol 94 % of control and 113 % of control | dose: 50.0 micrograms/kg/injection, schedule: Q01DX009 (ip), vehicle: saline + alcohol 94 % of control and 112 % of control | dose: 100.0 micrograms/kg/injection, schedule: Q01DX009 (ip), vehicle: saline + alcohol 94 % of control and 105 % of control | dose: 200.0 micrograms/kg/injection, schedule: Q01DX009 (ip), vehicle: saline + alcohol 108 % of control and 112 % of control | dose: 400.0 micrograms/kg/injection, schedule: Q01DX009 (ip), vehicle: saline + alcohol 102 % of control

CCN1/C(=C/C(C)=C/c2sc3ccccc3[n+]2CC)Sc2ccccc21
inactive: dose: 25.0 micrograms/kg/injection, schedule: Q01DX009 (ip), vehicle: Klucel (hydroxypropylcellulose) (HPC) 116 % of control | dose: 50.0 micrograms/kg/injection, schedule: Q01DX009 (ip), vehicle: Klucel (hydroxypropylcellulose) (HPC) 109 % of control and 120 % of control | dose: 100.0 micrograms/kg/injection, schedule: Q01DX009 (ip), vehicle: Klucel (hydroxypropylcellulose) (HPC) 106 % of control and 108 % of control | dose: 200.0 micrograms/kg/injection, schedule: Q01DX009 (ip), vehicle: Klucel (hydroxypropylcellulose) (HPC) 97 % of control | dose: 400.0 micrograms/kg/injection, schedule: Q01DX009 (ip), vehicle: Klucel (hydroxypropylcellulose) (HPC) 106 % of control

COc1ccc(NC(=O)Nc2ccccc2C(F)(F)F)cc1
inactive: dose: 100.0 mg/kg/injection, schedule: Q01DX001 (ip), vehicle: saline with Tween-80 95 % of control | dose: 200.0 mg/kg/injection, schedule: Q01DX001 (ip), vehicle: saline with Tween-80 100 % of control | dose: 400.0 mg/kg/injection, schedule: Q01DX001 (ip), vehicle: saline with Tween-80 90 % of control
